# Test: solubility determination by Chasing Equilibrium pH-metric titration
# Format: physicochemical
# Text: In the Dissolution stage, the test solution is titrated with base titrant. In the Seeking Precipitation and Additional Precipitation stages, the test solution is titrated with acid titrant.
# After the final data point of the Additional Precipitation stage has been collected, the method moves on to the Chasing Equilibrium stage. Chasing Equilibrium for an acidic sample is based on the following principles:
# The first points are collected while adding base titrant to a supersaturated test solution. The addition of titrant is controlled by a computer program. The slope decreases with each aliquot of base that is added. […] Another aliquot of base is added to confirm that the slope is negative. If the slope remains negative, another data point is taken after adding no titrant. […] By successively adding aliquots of base and acid, the slope can be forced to change direction. When the slope has changed direction several (e.g. five) times the Chasing Equilibrium stage of the procedure is deemed to be complete.
# The concentration of unionised solute in solution is calculated for each point in FIG. 7, and plotted against slope (pH/min) as shown in FIG. 8. The points are then connected by a line in the same order that they appeared in FIG. 7. The points corresponding to where the line crosses the zero value of the slope (pH/min) axis are determined by interpolation. The concentration equivalent to these zero slope, crossing points is determined. The solubility is then obtainable as the mean concentration calculated from the several zero slope, crossing points.
# For each point located on either side of a zero slope crossing, the amount of neutral sample in solution could be calculated in the following steps:
# 1. […]
# 4. The concentration of free positive ions (e.g. K^+) is determined from the amount of base titrant (e.g. KOH) plus any positive ions in the test compound if it was a salt: [K^+]=(vbcb+mszs+/wf)/vt • wherein: cb is the concentration of base titrant • ms is the sample weight of test compound • zs+ is the charge of any positive salt counter-ions • wf is the formula weight of the test compound. […]
smiles,measurement,setting,value
O=C(O)Cc1ccccc1Nc1c(Cl)cccc1Cl [diclofenac],solubility thermodynamic,"0.15 M KCl solution titrated with acid and base, saline or isotonic, thermodynamic from solid, straight line interpolation of points A and B to zero pH slope, 0.15M KCl solution, sample introduced as sodium salt, read-out: equilibrium solubility (concentration of unionised compound at zero pH slope)",~0.732 µg/mL
same,dissolved neutral test sample,"point A, one side of zero-slope crossing, pH=5.64453, pH slope=2.87 E-05",759 ng/mL
same,dissolved neutral test sample,"point B, other side of zero-slope crossing, pH=5.70437, pH slope=-3.5 E-06",728 ng/mL
